Data taken from patent US20220105183A1, “MICRO-NANO STRUCTURE FORMED BY SELF-ASSEMBLING ORGANIC SMALL MOLECULE COMPOUND AND USE THEREOF” (Qingdao University of Science and Technology, priority 2018, published 2022).

Assay: Photodynamic effect test with carboxy-H2DCFDA
Conditions: 10 μM in water with 25 μM carboxy-H2DCFDA, 808 nm laser 10 minutes
Method: The control group only added carboxy-H2DCFDA compound. Irradiated with 808 nm laser for 10 minutes, and the sample was lowered to room temperature, and its fluorescence emission spectrum (Ex=495 nm, Em=530 nm) was tested. […] It has been verified that other compounds of the present invention have no similar photodynamic effect.

For `CCN1C(=CC=C2CCCC(C=CC3=C(C#N)C(=C(C#N)C#N)OC3(C)C)=C2Cl)C(C)(C)c2ccccc21` [II-1], the “production of reactive oxygen radicals (photodynamic effect)” value was “does not produce reactive oxygen radicals (ROS)”.
